Source: patent US10548898B2, “Quinazoline compounds” (Gilead Sciences, Inc., priority 2014, dated 2020)
Like-named read-outs stand apart in the source and are kept apart here.

Legend:
Format in all cases: cell-based
[1] = test system: HIV-1 reverse transcriptase mutant Y181C; test: High throughput cytopathic effect assay in MT-4 cells, Y181C mutant; conditions: for EC50: Human immunodeficiency virus 1, MT4, 120 h, read-out: MT4 EC50 (nM) against Y181C; for FC against mutant Y181C: fold change of MT4 EC50 versus w.t. assay 2
From the text: (§1) Compounds were screened in a miniaturized, high throughput cytopathic effect assay for activity against HIV-1 HBX2 (wild type) and HIV-1 reverse transcriptase mutants K103N and Y181C. In Tables 1 and 2 below. “w.t.” refers to results of the tested compounds run with the wildtype 1 and “w.t, assay 2” refers results of the tested compounds run with the wildtype on the same day as the testing of the compounds with the mutants. Thus, “w.t, assay 2” was run under the same conditions as the testing of the compounds with the mutants and provides a direct comparison with the results from the testing with the mutants.
(§2) Ten-point serial dilutions of compounds with half-log step size were generated in DMSO. AZT ([…]) was used as the positive control and DMSO as the negative control. The Echo acoustic dispenser was used to deliver 200 nL of serially diluted compound into sterile 384 well tissue culture assay plates. Two million MT-4 cells were incubated with each of the 3 viruses at MOI of 0.0005 in separate 1 mL infection tubes for 1 hour at 37° C. The cells were diluted in cell culture medium (RPMI+10% FBS) to 50.000 cells/mL. The infected cells were added to 384 well assay plates containing serially dilute compounds. Assay plates were incubated for 5 days in a humidified incubator set at 37° C. and 5% CO2. To measure the cytopathic effect of HIV, 40 μL Cell TiterGlo was added to each well and the resulting luminescence signal is read with the Envision plate reader (Perkin Elmer). Data were normalized to positive and negative controls in each plate and expressed as % CPE Protection. EC50 values were defined as the compound concentration that caused a 50% decrease in luminescence signal, and were calculated by non-linear regression using Pipeline Pilot software by applying a four parameter fit equation (Accelrys, San Diego, Calif.).

[2] = test system: HIV-1 reverse transcriptase mutant K103N; test: High throughput cytopathic effect assay in MT-4 cells, K103N mutant; conditions: for EC50: Human immunodeficiency virus 1, MT4, 120 h, read-out: MT4 EC50 (nM) against K103N; for FC against mutant K103N: fold change of MT4 EC50 versus w.t. assay 2
From the text: as §1, §2

HIV-1 HBX2 (wild type) = test: High throughput cytopathic effect assay in MT-4 cells, wild type HIV-1
From the text: as §1, §2

[3] = Human immunodeficiency virus 1, MT4, 120 h, MT-4 cells, 5 days, cytopathic effect, Cell TiterGlo, read-out: MT4 EC50 (nM) against w.t.
[4] = Human immunodeficiency virus 1, MT4, read-out: MT4 EC50 (nM) against w.t. assay 2

SMILES	EC50 [1]	FC against mutant Y181C [1]	EC50 [2]	FC against mutant K103N [2]	EC50 (HIV-1 HBX2 (wild type); [3])	EC50 (HIV-1 HBX2 (wild type); [4])	EC50 (HIV-1 HBX2 (wild type); Human immunodeficiency virus 1, MT4, 120 h, read-out: MT4 EC50 (nM) against w.t.)
CC(C#N)=Cc1cc(C)c(-c2cccc3c(N)nc(Nc4ccc(C#N)cc4)nc23)c(C)c1 (racemic) [Compound 40, 4-((4-Amino-8-(4-(2-cyanoprop-1-en-1-yl)-2,6-dimethylphenyl)quinazolin-2-yl)amino)benzonitrile]	36.1 nM	3.7	16.3 nM	1.7	6.8 nM	9.9 nM	–
Cc1cc(/C=C/C#N)cc(C)c1-c1cccc2c(NCC3CC3)nc(Nc3ccc(C#N)cc3)nc12 [Compound 6, (E)-4-((8-(4-(2-Cyanovinyl)-2,6-dimethylphenyl)-4-((cyclopropylmethyl)amino)quinazolin-2-yl)amino)benzonitrile]	470 nM	5.7	81.1 nM	1.0	99.3 nM	82.6 nM	–
CCCCNc1nc(Nc2ccc(C#N)cc2)nc2c(-c3c(C)cc(/C=C/C#N)cc3C)cccc12 [Compound 7, (E)-4-((4-(Butylamino)-8-(4-(2-cyanovinyl)-2,6-dimethylphenyl)quinazolin-2-yl)amino)benzonitrile]	> 500 nM	>4.3	130 nM	1.1	122 nM	117 nM	–
N#C/C=C/c1cc(F)c(-c2cccc3c(N)nc(Nc4ccc(C#N)cc4)nc23)c(F)c1 [Compound 8, (E)-4-((4-Amino-8-(4-(2-cyanovinyl)-2,6-difluorophenyl)quinazolin-2-yl)amino)benzonitrile]	21.7 nM	7.8	3.7 nM	1.3	2.7 nM	2.8 nM	–
Cc1cc(/C=C/C#N)cc(C)c1-c1cc(F)cc2cnc(Nc3ccc(C#N)cn3)nc12 [Compound 14, (E)-6-((8-(4-(2-Cyanovinyl)-2,6-dimethylphenyl)-6-fluoroquinazolin-2-yl)amino)nicotinonitrile]	122 nM	9.6	15.1 nM	1.2	8.1 nM	12.7 nM	–
Cc1cc(Nc2nc(N)c3cccc(-c4c(C)cc(/C=C/C#N)cc4C)c3n2)nc(C)c1C#N [Compound 15, (E)-6-((4-Amino-8-(4-(2-cyanovinyl)-2,6-dimethylphenyl)quinazolin-2-yl)amino)-2,4-dimethylnicotinonitrile]	180 nM	5.4	72.2 nM	2.2	22.6 nM	33.2 nM	–
Cc1cc(/C=C/C#N)cc(C)c1-c1cccc2c(N)nc(Nc3ccc(C#N)c(C)n3)nc12 [Compound 16, (E)-6-((4-Amino-8-(4-(2-cyanovinyl)-2,6-dimethylphenyl)quinazolin-2-yl)amino)-2-methylnicotinonitrile]	42.6 nM	5.7	12.5 nM	1.7	6.3 nM	7.5 nM	–
Cc1cc(C#N)cnc1Nc1nc(N)c2cccc(-c3c(C)cc(/C=C/C#N)cc3C)c2n1 [Compound 17, (E)-6-((4-Amino-8-(4-(2-cyanovinyl)-2,6-dimethylphenyl)quinazolin-2-yl)amino)-5-methylnicotinonitrile]	> 500 nM	>2.6	151 nM	0.8	229 nM	190 nM	–
Cc1cc(Nc2nc(N)c3cccc(-c4c(C)cc(/C=C/C#N)cc4C)c3n2)ncc1C#N [Compound 18, (E)-6-((4-Amino-8-(4-(2-cyanovinyl)-2,6-dimethylphenyl)quinazolin-2-yl)amino)-4-methylnicotinonitrile]	112 nM	8.6	12.1 nM	0.9	21.9 nM	13.1 nM	–
Cc1cc(/C=C/C#N)cc(C)c1-c1cc(Cl)cc2c(N)nc(Nc3ccc(C#N)cc3)nc12 [Compound 19, (E)-4-((4-Amino-6-chloro-8-(4-(2-cyanovinyl)-2,6-dimethylphenyl)quinazolin-2-yl)amino)benzonitrile]	79.7 nM	2.7	30.3 nM	1.0	27.5 nM	29 nM	–
Cc1cc(/C=C/C#N)cc(C)c1-c1cc(F)cc2c(N)nc(Nc3ccc(C#N)cn3)nc12 [Compound 20, (E)-6-((4-Amino-8-(4-(2-cyanovinyl)-2,6-dimethylphenyl)-6-fluoroquinazolin-2-yl)amino)nicotinonitrile]	69.9 nM	10.5	7.1 nM	1.1	7 nM	6.6 nM	–
Cc1cc(-c2c(C)cc(/C=C/C#N)cc2C)c2nc(Nc3ccc(C#N)cn3)nc(N)c2c1 [Compound 21, (E)-6-((4-Amino-8-(4-(2-cyanovinyl)-2,6-dimethylphenyl)-6-methylquinazolin-2-yl)amino)nicotinonitrile]	187 nM	17.6	10.8 nM	1.0	10.1 nM	10.6 nM	–
Cc1cc(/C=C/C#N)cc(C)c1-c1cc([N+](=O)[O-])cc2c(N)nc(Nc3ccc(C#N)cn3)nc12 [Compound 22, (E)-6-((4-Amino-8-(4-(2-cyanovinyl)-2,6-dimethylphenyl)-6-nitroquinazolin-2-yl)amino)nicotinonitrile]	> 500 nM	>5.7	101 nM	1.2	69.3 nM	87.5 nM	–
Cc1cc(/C=C/C#N)cc(C)c1-c1cc(N)cc2c(N)nc(Nc3ccc(C#N)cn3)nc12 [Compound 23, (E)-6-((4,6-Diamino-8-(4-(2-cyanovinyl)-2,6-dimethylphenyl)quinazolin-2-yl)amino)nicotinonitrile]	–	–	–	–	8.7 nM	–	–
COc1cc(-c2c(C)cc(/C=C/C#N)cc2C)c2nc(Nc3ccc(C#N)cn3)nc(N)c2c1 [Compound 24, (E)-6-((4-Amino-8-(4-(2-cyanovinyl)-2,6-dimethylphenyl)-6-methoxyquinazolin-2-yl)amino)nicotinonitrile]	478 nM	17.2	32.5 nM	1.2	–	27.8 nM	27.8 nM
Cc1cc(/C=C/C#N)cc(C)c1-c1cc(Br)cc2c(N)nc(Nc3ccc(C#N)cc3)nc12 [Compound 25, (E)-4-((4-Amino-6-bromo-8-(4-(2-cyanovinyl)-2,6-dimethylphenyl)quinazolin-2-yl)amino)benzonitrile]	160 nM	5.6	44.1 nM	1.6	39.1 nM	28.3 nM	–
Cc1cc(/C=C/C#N)cc(C)c1-c1cc(F)cc2c(N)nc(Nc3cnc(C#N)cn3)nc12 [Compound 26, (E)-5-((4-Amino-8-(4-(2-cyanovinyl)-2,6-dimethylphenyl)-6-fluoroquinazolin-2-yl)amino)pyrazine-2-carbonitrile]	27.2 nM	13.5	2.4 nM	1.2	2.7 nM	2 nM	–
Cc1cc(/C=C/C#N)cc(C)c1-c1cc(F)cc2c(N)nc(Nc3ccc(C#N)nn3)nc12 [Compound 27, (E)-6-((4-Amino-8-(4-(2-cyanovinyl)-2,6-dimethylphenyl)-6-fluoroquinazolin-2-yl)amino)pyridazine-3-carbonitrile]	400 nM	105.9	5.3 nM	1.4	6.3 nM	3.8 nM	–
COc1ccc(-c2c(C)cc(/C=C/C#N)cc2C)c2nc(Nc3ccc(C#N)cc3)nc(N)c12 [Compound 28, (E)-4-((4-Amino-8-(4-(2-cyanovinyl)-2,6-dimethylphenyl)-5-methoxyquinazolin-2-yl)amino)benzonitrile]	57.2 nM	6.3	14.3 nM	1.6	11.4 nM	9.1 nM	–
COc1ccc(-c2c(C)cc(/C=C/C#N)cc2C)c2nc(Nc3ccc(C#N)cn3)nc(N)c12 [Compound 29, (E)-6-((4-Amino-8-(4-(2-cyanovinyl)-2,6-dimethylphenyl)-5-methoxyquinazolin-2-yl)amino)nicotinonitrile]	> 500 nM	>26.9	33.4 nM	1.8	22.1 nM	18.6 nM	–
